The values that follow come from PubChem BioAssay AID248 (DTP/NCI, 2004).

Values joined by “and” are separate entries in the source; they are usually repeats but may differ in a detail not shown here. Equal entries are not always repeated. Toxic doses and inconclusive results are not listed.

This assay deals with L1210 leukemia ip in BDF1 mice, survival T/C. In words: NCI In Vivo Anticancer Drug Screen. Data for tumor model L1210 Leukemia (intraperitoneal) in B6D2F1 (BDF1) mice. As to conditions: higher = longer survival. Put shortly: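 Antitumor effect is assessed in tumor-bearing animals. Survival in the compound arm is compared with a vehicle-dosed control arm and expressed as their quotient.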

The mark [1] stands for this setting: endpoint: mean survival time, dose: 100.0 mg/kg/injection, schedule: Q01DX009 (ip), vehicle: saline.
[2] abbreviates: endpoint: mean survival time, dose: 200.0 mg/kg/injection, schedule: Q01DX009 (ip), vehicle: saline.
[3] abbreviates: endpoint: mean survival time, dose: 400.0 mg/kg/injection, schedule: Q01DX009 (ip), vehicle: saline.
Where [4] appears, read: endpoint: mean survival time, dose: 100.0 mg/kg/injection, schedule: Q01DX009 (ip), vehicle: saline with Tween-80.
[5] abbreviates: endpoint: mean survival time, dose: 200.0 mg/kg/injection, schedule: Q01DX009 (ip), vehicle: saline with Tween-80.
Where [6] appears, read: endpoint: mean survival time, dose: 100.0 mg/kg/injection, schedule: Q04DX003 (ip), vehicle: saline.
Where [7] appears, read: endpoint: mean survival time, dose: 200.0 mg/kg/injection, schedule: Q04DX003 (ip), vehicle: saline.
Setting [8] is: endpoint: mean survival time, dose: 400.0 mg/kg/injection, schedule: Q04DX003 (ip), vehicle: saline.
[9] abbreviates: endpoint: mean survival time, dose: 100.0 mg/kg/injection, schedule: Q04DX003 (ip), vehicle: Klucel (hydroxypropylcellulose) (HPC).
[10] abbreviates: endpoint: mean survival time, dose: 200.0 mg/kg/injection, schedule: Q04DX003 (ip), vehicle: Klucel (hydroxypropylcellulose) (HPC).
Setting [11] is: endpoint: mean survival time, dose: 400.0 mg/kg/injection, schedule: Q04DX003 (ip), vehicle: Klucel (hydroxypropylcellulose) (HPC).
[12] abbreviates: endpoint: mean survival time, dose: 100.0 mg/kg/injection, schedule: Q01DX001 (ip), vehicle: saline.
Setting [13] is: endpoint: mean survival time, dose: 200.0 mg/kg/injection, schedule: Q01DX001 (ip), vehicle: saline.
Setting [14] is: endpoint: mean survival time, dose: 400.0 mg/kg/injection, schedule: Q01DX001 (ip), vehicle: saline.
[15] abbreviates: endpoint: mean survival time, dose: 100.0 mg/kg/injection, schedule: Q04DX003 (ip), vehicle: saline with Tween-80.
Where [16] appears, read: endpoint: mean survival time, dose: 200.0 mg/kg/injection, schedule: Q04DX003 (ip), vehicle: saline with Tween-80.
[17] abbreviates: endpoint: mean survival time, dose: 400.0 mg/kg/injection, schedule: Q01DX009 (ip), vehicle: saline with Tween-80.
[18] abbreviates: endpoint: mean survival time, dose: 400.0 mg/kg/injection, schedule: Q04DX003 (ip), vehicle: saline with Tween-80.

Consider `O=C1N(c2ccccc2)C(c2ccccc2)C1(c1ccccc1)c1ccccc1` (stereo not given), for which the T/C is, setting by setting: (endpoint: mean survival time, dose: 100.0 mg/kg/injection, schedule: Q01DX001 (ip), vehicle: gum acacia) 92 % of control; (endpoint: mean survival time, dose: 200.0 mg/kg/injection, schedule: Q01DX001 (ip), vehicle: gum acacia) 86 % of control; (endpoint: mean survival time, dose: 400.0 mg/kg/injection, schedule: Q01DX001 (ip), vehicle: gum acacia) 94 % of control.

For `CC1C[N-]CC(C)C1.CC1C[N-]CC(C)C1.CC1C[N-]CC(C)C1.CC1C[N-]CC(C)C1.[Cl][Rh][Cl]` (stereo not given), the T/C is 98 % of control (endpoint: mean survival time, dose: 1.5 mg/kg/injection, schedule: Q01DX009 (ip), vehicle: gum acacia); 96 % of control (endpoint: mean survival time, dose: 3.0 mg/kg/injection, schedule: Q01DX009 (ip), vehicle: gum acacia); 100 % of control (endpoint: mean survival time, dose: 6.0 mg/kg/injection, schedule: Q01DX009 (ip), vehicle: gum acacia); 100 % of control (endpoint: mean survival time, dose: 12.5 mg/kg/injection, schedule: Q04DX003 (ip), vehicle: gum acacia); 93 % of control (endpoint: mean survival time, dose: 25.0 mg/kg/injection, schedule: Q04DX003 (ip), vehicle: gum acacia).

For `O=C1NC(O)CCN1C1OC(CO)C(O)C1O` (stereo not given), the T/C by setting is: (endpoint: mean survival time, dose: 25.0 mg/kg/injection, schedule: Q01DX009 (ip), vehicle: saline) 101 % of control; (endpoint: mean survival time, dose: 50.0 mg/kg/injection, schedule: Q01DX009 (ip), vehicle: saline) 113 % of control; (endpoint: mean survival time, dose: 50.0 mg/kg/injection, schedule: Q01DX015 (ip), vehicle: saline) 98 % of control; under setting [1], 95 % of control; (endpoint: mean survival time, dose: 100.0 mg/kg/injection, schedule: Q01DX015 (ip), vehicle: saline) 94 % of control; under setting [2], 110 % of control. Also, the T/C was 90 % of control under setting [3]; 95 % of control (endpoint: mean survival time, dose: 800.0 mg/kg/injection, schedule: Q01DX009 (ip), vehicle: saline); 102 % of control (endpoint: median survival time, dose: 500.0 mg/kg/injection, schedule: Q01DX009 (ip), vehicle: saline); 94 % of control (endpoint: median survival time, dose: 1000.0 mg/kg/injection, schedule: Q01DX009 (ip), vehicle: saline); 93 % of control (endpoint: median survival time, dose: 2000.0 mg/kg/injection, schedule: Q01DX009 (ip), vehicle: saline).

As for `CCCCC(=O)OCC(=O)[C@]1(O)Cc2c(O)c3c(c(O)c2[C@@H](OC2CC(NC(=O)C(F)(F)F)C(O)C(C)O2)C1)C(=O)c1c(OC)cccc1C3=O` (stereo not given in full), the T/C runs as follows: (endpoint: mean survival time, dose: 7.5 mg/kg/injection, schedule: Q01DX004 (ip), vehicle: saline with Tween-80) 108 % of control and 112 % of control; (endpoint: mean survival time, dose: 10.0 mg/kg/injection, schedule: Q01DX004 (ip), vehicle: saline with Tween-80) 117 % of control and 119 % of control and 120 % of control; (endpoint: mean survival time, dose: 30.0 mg/kg/injection, schedule: Q01DX004 (ip), vehicle: saline with Tween-80) 166 % of control; (endpoint: mean survival time, dose: 40.0 mg/kg/injection, schedule: Q01DX004 (ip), vehicle: other) 164 % of control and 375 % of control; (endpoint: mean survival time, dose: 50.0 mg/kg/injection, schedule: Q01DX004 (ip), vehicle: other) 372 % of control and 470 % of control; (endpoint: mean survival time, dose: 60.0 mg/kg/injection, schedule: Q01DX004 (ip), vehicle: other) 177 % of control and 441 % of control.

Regarding `CCCCCCN(/N=C\C(=O)O)C(N)=O`, the T/C by setting is: (endpoint: mean survival time, dose: 50.0 mg/kg/injection, schedule: Q01DX009 (ip), vehicle: saline with Tween-80) 103 % of control; under setting [4], 88 % of control; under setting [5], 98 % of control.

For the compound `COc1cc(OC)c(Br)c(OC)c1`, the T/C was 108 % of control (endpoint: mean survival time, dose: 100.0 mg/kg/injection, schedule: Q01DX009 (ip), vehicle: other); 94 % of control under setting [6]; 93 % of control (endpoint: mean survival time, dose: 200.0 mg/kg/injection, schedule: Q01DX009 (ip), vehicle: other); 96 % of control under setting [7]; 101 % of control (endpoint: mean survival time, dose: 400.0 mg/kg/injection, schedule: Q01DX009 (ip), vehicle: other); 97 % of control under setting [8].

In the case of `CCC(c1ccc2cc(OC)ccc2c1)C(CC(=O)O)C(=O)OC` (stereo not given), the T/C is, setting by setting: under setting [9], 100 % of control; under setting [10], 96 % of control; under setting [11], 91 % of control.

As for `C=COC(=O)Sc1c(Cl)c(Cl)c(Cl)c(Cl)c1Cl`, the T/C runs as follows: (endpoint: mean survival time, dose: 50.0 mg/kg/injection, schedule: Q01DX001 (ip), vehicle: saline) 100 % of control; under setting [12], 97 % of control; under setting [13], 103 % of control; under setting [14], 92 % of control.

Consider `O=C(/C=C/c1cccnc1)NCC(O)CO` (stereo not given), for which the T/C under setting [1] is 101 % of control; the T/C under setting [6] is 108 % of control; the T/C under setting [2] was 97 % of control; the T/C under setting [7] is 105 % of control; the T/C under setting [3] was 100 % of control; the T/C under setting [8] is 96 % of control.

As to `O=C(O)c1ccccc1C(=O)c1ccc2ccccc2c1`, the T/C is 94 % of control (endpoint: mean survival time, dose: 12.5 mg/kg/injection, schedule: Q04DX002 (ip), vehicle: saline with Tween-80); 88 % of control (endpoint: mean survival time, dose: 25.0 mg/kg/injection, schedule: Q04DX002 (ip), vehicle: saline with Tween-80); 91 % of control (endpoint: mean survival time, dose: 50.0 mg/kg/injection, schedule: Q04DX002 (ip), vehicle: saline with Tween-80).

In the case of `COc1nccc(SC)n1`, the T/C reads like this: (endpoint: mean survival time, dose: 95.0 mg/kg/injection, schedule: Q04DX003 (ip), vehicle: Klucel (hydroxypropylcellulose) (HPC)) 110 % of control; under setting [9], 107 % of control and 91 % of control; (endpoint: mean survival time, dose: 135.0 mg/kg/injection, schedule: Q04DX003 (ip), vehicle: Klucel (hydroxypropylcellulose) (HPC)) 105 % of control; under setting [10], 96 % of control and 97 % of control.

As to `O=C(Nc1cccc2c1N(C(=O)c1ccco1)CCC2)c1ccco1`, the T/C reads like this: under setting [4], 98 % of control; under setting [15], 94 % of control; under setting [5], 101 % of control; under setting [16], 96 % of control; under setting [17], 95 % of control; under setting [18], 96 % of control.

`Cc1cc(C)c(C)c(OCC(=O)O)c1`: the T/C is 97 % of control (endpoint: mean survival time, dose: 75.0 mg/kg/injection, schedule: Q01DX001 (ip), vehicle: other); 97 % of control (endpoint: mean survival time, dose: 150.0 mg/kg/injection, schedule: Q01DX001 (ip), vehicle: other); 95 % of control (endpoint: mean survival time, dose: 300.0 mg/kg/injection, schedule: Q01DX001 (ip), vehicle: other).

For the compound `CC(C)(C)OC1C2C=CC1C1C2C2(Cl)C(Cl)=C(Cl)C1(Cl)C21OCCO1` (stereo not given), the T/C is 97 % of control (endpoint: mean survival time, dose: 100.0 mg/kg/injection, schedule: Q04DX002 (ip), vehicle: Klucel (hydroxypropylcellulose) (HPC)) and 110 % of control (endpoint: mean survival time, dose: 400.0 mg/kg/injection, schedule: Q04DX002 (ip), vehicle: Klucel (hydroxypropylcellulose) (HPC)).

For the compound `Cc1c([N+](=O)[O-])cc(I)cc1[N+](=O)[O-]`, the T/C was 106 % of control under setting [15], 108 % of control under setting [16] and 103 % of control under setting [18].

For the compound `COc1cc2ccc(CC(=O)NCCc3ccc4c(c3)OCO4)cc2cc1OC`, the T/C is 97 % of control (endpoint: mean survival time, dose: 100.0 mg/kg/injection, schedule: Q01DX009 (ip), vehicle: Klucel (hydroxypropylcellulose) (HPC)); 97 % of control under setting [9]; 90 % of control (endpoint: mean survival time, dose: 200.0 mg/kg/injection, schedule: Q01DX009 (ip), vehicle: Klucel (hydroxypropylcellulose) (HPC)); 102 % of control under setting [10]; 93 % of control (endpoint: mean survival time, dose: 400.0 mg/kg/injection, schedule: Q01DX009 (ip), vehicle: Klucel (hydroxypropylcellulose) (HPC)); 91 % of control under setting [11].

For `ClC(Cl)(Cl)c1cc(C(Cl)(Cl)Cl)nc(NCCCN2CCCC2)n1`, the T/C is, setting by setting: under setting [4], 99 % of control; under setting [5], 96 % of control; under setting [17], 95 % of control.

Consider `CCCCCCC1(C)CCC(=O)O1` (stereo not given), for which the T/C is, setting by setting: under setting [12], 94 % of control; under setting [13], 94 % of control; under setting [14], 100 % of control.
